In ChEMBL document CHEMBL3991601, “The target landscape of clinical kinase drugs” (Science, 2017) one finds Kd data, which are given here for 18 compounds.

Activity calls are given as the source filed them. Rule as the data show it, for most assays here: actives have a measured Kd and inactives only a lower limit.

The target in test [1] is Interleukin-1 receptor-associated kinase 1 (Homo sapiens, UniProt P51617).
The target in test [2] is T1, Serine/threonine-protein kinase ULK1 (Homo sapiens, UniProt O75385).
T1 sequence (O75385 whole entry): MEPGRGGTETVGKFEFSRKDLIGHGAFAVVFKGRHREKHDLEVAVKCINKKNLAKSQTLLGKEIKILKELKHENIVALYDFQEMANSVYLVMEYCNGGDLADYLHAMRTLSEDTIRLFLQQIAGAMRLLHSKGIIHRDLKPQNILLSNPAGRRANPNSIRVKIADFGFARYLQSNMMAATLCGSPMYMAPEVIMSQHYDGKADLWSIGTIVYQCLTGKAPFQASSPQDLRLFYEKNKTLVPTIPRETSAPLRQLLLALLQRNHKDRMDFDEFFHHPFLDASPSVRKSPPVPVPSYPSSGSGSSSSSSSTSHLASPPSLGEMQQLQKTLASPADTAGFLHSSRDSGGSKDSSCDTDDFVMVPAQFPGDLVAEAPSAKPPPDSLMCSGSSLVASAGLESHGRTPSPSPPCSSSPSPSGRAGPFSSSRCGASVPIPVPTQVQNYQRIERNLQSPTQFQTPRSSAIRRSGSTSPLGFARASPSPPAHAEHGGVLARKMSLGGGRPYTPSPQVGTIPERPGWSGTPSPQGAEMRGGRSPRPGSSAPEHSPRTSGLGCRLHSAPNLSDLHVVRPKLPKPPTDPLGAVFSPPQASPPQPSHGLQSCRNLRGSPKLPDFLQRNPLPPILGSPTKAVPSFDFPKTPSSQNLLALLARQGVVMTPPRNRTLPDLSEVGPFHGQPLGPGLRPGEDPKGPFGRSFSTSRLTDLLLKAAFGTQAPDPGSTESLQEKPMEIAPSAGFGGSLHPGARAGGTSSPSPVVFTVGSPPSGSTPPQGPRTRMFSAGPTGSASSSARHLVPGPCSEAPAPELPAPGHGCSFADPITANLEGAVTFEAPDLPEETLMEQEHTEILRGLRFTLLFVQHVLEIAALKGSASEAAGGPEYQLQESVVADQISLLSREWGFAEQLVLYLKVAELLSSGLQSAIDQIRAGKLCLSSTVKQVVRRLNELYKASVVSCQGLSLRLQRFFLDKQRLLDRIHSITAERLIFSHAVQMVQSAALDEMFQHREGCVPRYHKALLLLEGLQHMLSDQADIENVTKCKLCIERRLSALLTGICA

The target of test [3] is T2, Structural maintenance of chromosomes protein 1A (Homo sapiens, UniProt Q14683).
T2 sequence (Q14683 whole entry): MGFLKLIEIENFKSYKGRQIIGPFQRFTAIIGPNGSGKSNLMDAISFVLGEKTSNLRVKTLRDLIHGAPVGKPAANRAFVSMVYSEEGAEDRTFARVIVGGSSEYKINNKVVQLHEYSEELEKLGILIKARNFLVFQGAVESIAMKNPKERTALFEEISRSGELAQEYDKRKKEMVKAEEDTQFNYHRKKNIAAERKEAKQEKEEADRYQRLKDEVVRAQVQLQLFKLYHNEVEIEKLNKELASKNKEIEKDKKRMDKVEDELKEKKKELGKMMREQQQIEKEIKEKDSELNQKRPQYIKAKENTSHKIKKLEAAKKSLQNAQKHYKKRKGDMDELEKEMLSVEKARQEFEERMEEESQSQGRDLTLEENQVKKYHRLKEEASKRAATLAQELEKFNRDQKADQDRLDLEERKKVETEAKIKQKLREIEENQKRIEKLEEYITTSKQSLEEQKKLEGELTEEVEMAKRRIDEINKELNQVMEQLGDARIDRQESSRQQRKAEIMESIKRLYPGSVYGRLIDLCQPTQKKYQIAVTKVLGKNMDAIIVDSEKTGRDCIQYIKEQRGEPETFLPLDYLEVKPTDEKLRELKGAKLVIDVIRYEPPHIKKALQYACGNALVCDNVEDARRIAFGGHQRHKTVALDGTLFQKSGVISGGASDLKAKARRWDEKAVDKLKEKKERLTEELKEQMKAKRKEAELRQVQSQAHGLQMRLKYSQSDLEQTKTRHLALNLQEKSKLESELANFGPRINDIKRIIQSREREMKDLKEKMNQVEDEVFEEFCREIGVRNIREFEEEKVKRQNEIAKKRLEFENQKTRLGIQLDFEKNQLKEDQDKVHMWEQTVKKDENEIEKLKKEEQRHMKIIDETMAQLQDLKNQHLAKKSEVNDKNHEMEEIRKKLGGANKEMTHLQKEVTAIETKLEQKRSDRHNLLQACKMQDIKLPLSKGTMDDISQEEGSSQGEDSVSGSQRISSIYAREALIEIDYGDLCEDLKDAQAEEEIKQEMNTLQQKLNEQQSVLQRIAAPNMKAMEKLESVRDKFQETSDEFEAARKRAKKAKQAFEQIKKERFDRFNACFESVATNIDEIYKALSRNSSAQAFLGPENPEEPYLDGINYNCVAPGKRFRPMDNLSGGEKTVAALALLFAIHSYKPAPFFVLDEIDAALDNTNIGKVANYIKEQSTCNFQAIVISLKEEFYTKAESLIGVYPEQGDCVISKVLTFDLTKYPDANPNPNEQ

Test [4] addresses T3, Serine/threonine-protein kinase 4 (Homo sapiens, UniProt Q13043).
T3 sequence (Q13043 whole entry): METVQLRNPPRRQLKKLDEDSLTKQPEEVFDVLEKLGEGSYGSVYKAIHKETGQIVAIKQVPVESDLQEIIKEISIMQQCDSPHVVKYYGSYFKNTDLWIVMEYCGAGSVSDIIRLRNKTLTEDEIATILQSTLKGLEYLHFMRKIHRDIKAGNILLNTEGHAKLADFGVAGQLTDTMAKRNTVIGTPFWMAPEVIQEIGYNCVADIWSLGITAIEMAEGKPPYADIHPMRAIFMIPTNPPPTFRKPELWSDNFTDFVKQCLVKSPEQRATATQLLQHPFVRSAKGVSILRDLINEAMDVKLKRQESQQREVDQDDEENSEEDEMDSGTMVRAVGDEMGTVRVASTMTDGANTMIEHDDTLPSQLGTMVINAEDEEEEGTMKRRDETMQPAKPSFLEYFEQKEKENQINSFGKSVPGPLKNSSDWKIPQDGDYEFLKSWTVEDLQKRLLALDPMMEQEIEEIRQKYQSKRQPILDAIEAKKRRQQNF

For test [5], the target named is Serine/threonine-protein kinase 10 (Homo sapiens, UniProt O94804).
Serine/threonine-protein kinase 10, sequence (O94804 whole entry): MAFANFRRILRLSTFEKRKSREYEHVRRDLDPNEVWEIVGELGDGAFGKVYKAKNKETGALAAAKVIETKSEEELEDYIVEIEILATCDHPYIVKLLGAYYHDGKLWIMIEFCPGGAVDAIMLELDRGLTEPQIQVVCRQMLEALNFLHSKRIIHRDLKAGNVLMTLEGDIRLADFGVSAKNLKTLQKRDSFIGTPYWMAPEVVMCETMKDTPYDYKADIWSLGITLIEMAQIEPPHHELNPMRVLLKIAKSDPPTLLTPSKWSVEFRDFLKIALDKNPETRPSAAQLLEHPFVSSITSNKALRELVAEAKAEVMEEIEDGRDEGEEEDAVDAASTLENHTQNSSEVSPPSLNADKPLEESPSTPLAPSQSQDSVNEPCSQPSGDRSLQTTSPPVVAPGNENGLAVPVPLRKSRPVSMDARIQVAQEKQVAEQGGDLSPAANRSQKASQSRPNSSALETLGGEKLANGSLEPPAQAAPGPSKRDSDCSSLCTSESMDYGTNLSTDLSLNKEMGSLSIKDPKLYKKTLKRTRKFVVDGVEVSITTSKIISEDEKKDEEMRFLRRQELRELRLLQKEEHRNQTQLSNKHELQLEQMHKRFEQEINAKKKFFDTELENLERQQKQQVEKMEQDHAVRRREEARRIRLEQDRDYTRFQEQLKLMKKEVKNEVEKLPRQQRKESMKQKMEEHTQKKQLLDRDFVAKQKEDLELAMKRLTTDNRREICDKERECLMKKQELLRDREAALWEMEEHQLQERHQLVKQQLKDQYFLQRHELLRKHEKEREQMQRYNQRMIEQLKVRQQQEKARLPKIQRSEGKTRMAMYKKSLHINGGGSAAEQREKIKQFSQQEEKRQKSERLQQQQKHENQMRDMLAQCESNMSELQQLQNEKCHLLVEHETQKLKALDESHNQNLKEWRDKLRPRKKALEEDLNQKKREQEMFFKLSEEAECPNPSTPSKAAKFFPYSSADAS
Also: in the data inactive means no Kd found up to 30 µM.

Interleukin-1 receptor-associated kinase 1, sequence (P51617 whole entry): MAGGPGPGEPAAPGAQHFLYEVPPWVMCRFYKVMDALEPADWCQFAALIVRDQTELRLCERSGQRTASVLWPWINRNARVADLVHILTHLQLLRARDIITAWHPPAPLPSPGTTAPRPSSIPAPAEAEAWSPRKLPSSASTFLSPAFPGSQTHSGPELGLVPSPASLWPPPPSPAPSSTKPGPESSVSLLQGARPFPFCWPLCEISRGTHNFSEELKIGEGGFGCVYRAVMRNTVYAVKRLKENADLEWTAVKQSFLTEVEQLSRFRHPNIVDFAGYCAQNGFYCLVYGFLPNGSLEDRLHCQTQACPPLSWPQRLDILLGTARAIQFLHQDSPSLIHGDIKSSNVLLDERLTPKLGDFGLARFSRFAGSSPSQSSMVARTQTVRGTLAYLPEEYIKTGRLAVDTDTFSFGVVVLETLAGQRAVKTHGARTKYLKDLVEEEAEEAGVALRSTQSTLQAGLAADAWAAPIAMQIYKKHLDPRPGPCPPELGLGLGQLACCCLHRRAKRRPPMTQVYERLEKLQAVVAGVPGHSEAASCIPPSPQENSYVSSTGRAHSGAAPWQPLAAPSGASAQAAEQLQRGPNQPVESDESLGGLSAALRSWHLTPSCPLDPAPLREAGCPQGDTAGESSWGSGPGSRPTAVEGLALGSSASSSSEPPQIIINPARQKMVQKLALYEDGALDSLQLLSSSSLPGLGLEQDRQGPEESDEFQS

Turning to `COc1cccc2cc(-c3nc([C@H]4CC[C@H](C(=O)O)CC4)n4ncnc(N)c34)[nH]c12` [OSI-027], the Kd in test [1], in test [2], in test [3], in test [4] and in test [5] was > 30 µM (inactive) in each case.
For `O=C(O)c1ccc2c(c1)nc(Nc1cccc(Cl)c1)c1ccncc12` [SILMITASERTIB], the Kd – broadly, the equilibrium constant for the complex coming apart – is > 30 µM (inactive) in test [1]; 3.66 µM (active) in test [2]; > 30 µM (inactive) in test [3]; > 30 µM (inactive) in test [4]; 0.096 µM (active) in test [5].
For `COc1cc2ncnc(Nc3ccc(O)cc3)c2cc1OC` [WHI-P131], the Kd in test [1] is > 30 µM (inactive); in test [2], > 30 µM (inactive); in test [3], > 30 µM (inactive); in test [4], > 30 µM (inactive); in test [5], 2.63 µM (active).
For `O=C(Nc1ccc(OC(F)(F)F)cc1)c1sccc1NCc1ccnc2ccccc12` [OSI-930], the Kd in test [1], in test [2], in test [3], in test [4] and in test [5] was > 30 µM (inactive) each time.
Turning to `CNC(=O)c1ccc(Nc2ncc(C(F)(F)F)c(NCc3nccnc3N(C)S(C)(=O)=O)n2)cc1` [DEFACTINIB], the Kd is > 30 µM (inactive) in test [1]; > 30 µM (inactive) in test [2]; > 30 µM (inactive) in test [3]; 2.45 µM (active) in test [4]; > 30 µM (inactive) in test [5].
For `CC[C@@](C)(Nc1ccnc(-c2c[nH]c3ncccc23)n1)C(=O)NCC(F)(F)F` [DECERNOTINIB], the Kd was > 30 µM (inactive) in test [1]; > 30 µM (inactive) in test [2]; > 30 µM (inactive) in test [3]; > 30 µM (inactive) in test [4]; 0.071 µM (active) in test [5].
As for `O=S(=O)(c1cccc2c(O)nccc12)N1CCCNCC1` [HYDROXYFASUDIL], the Kd is > 30 µM (inactive) in test [1]; 23.3 µM (active) in test [2]; > 30 µM (inactive) in test [3]; > 30 µM (inactive) in test [4]; > 30 µM (inactive) in test [5].
Turning to `CN1CCN(c2nc(C3=C(c4c[nH]c5ccccc45)C(=O)NC3=O)c3ccccc3n2)CC1` [SOTRASTAURIN], the Kd in test [1], in test [2], in test [3], in test [4] and in test [5] was > 30 µM (inactive) in each case.
In the case of `CCN1CCN(Cc2ccc(Nc3ncc(F)c(-c4cc(F)c5nc(C)n(C(C)C)c5c4)n3)nc2)CC1` [ABEMACICLIB], the Kd was 0.126 µM (active) in test [1]; > 30 µM (inactive) in test [2]; > 30 µM (inactive) in test [3]; > 30 µM (inactive) in test [4]; 2.47 µM (active) in test [5].
On to `C[C@@H]1COC(Nc2ccc3ncnc(Nc4ccc(OCc5nccs5)c(Cl)c4)c3c2)=N1` [VARLITINIB], for which the Kd in test [1], in test [2], in test [3], in test [4] and in test [5] was > 30 µM (inactive) each time.
Take `NC(=O)c1ccc(N(C(N)=O)c2c(F)cccc2F)nc1-c1ccc(F)cc1F` [VX-702]: the Kd in test [1], in test [2], in test [3], in test [4] and in test [5] was > 30 µM (inactive) in each case.
As for `C=CC(=O)Nc1cc(Nc2nccc(-c3cn(C)c4ccccc34)n2)c(OC)cc1N(C)CCN(C)C` [OSIMERTINIB], the Kd in test [1], in test [2], in test [3], in test [4] and in test [5] was > 30 µM (inactive) in each case.
With `CCN(CCCOc1ccc2c(Nc3cc(CC(=O)Nc4cccc(F)c4)n[nH]3)ncnc2c1)CCOP(=O)(O)O` [BARASERTIB], the Kd in test [1], in test [2], in test [3], in test [4] and in test [5] was > 30 µM (inactive) throughout.
As to `COCCN1CCN(Cc2ccc(-c3n[nH]c4c3C(=O)c3c(NC(=O)NN5CCOCC5)cccc3-4)cc2)CC1` [RGB-286638], the Kd in test [1], in test [2], in test [3], in test [4] and in test [5] was > 30 µM (inactive) in each case.
Turning to `COc1cccc(Nc2ncnn3ccc(CN4CC[C@@H](N)[C@H](O)C4)c23)c1` [BMS-690514], the Kd was > 30 µM (inactive) in test [1]; > 30 µM (inactive) in test [2]; > 30 µM (inactive) in test [3]; > 30 µM (inactive) in test [4]; 1.28 µM (active) in test [5].
As to `Cn1c(=O)c(F)c(Nc2ccc(I)cc2F)c2c(=O)n(C[C@@H](O)CO)cnc21` [TAK-733], the Kd in test [1], in test [2], in test [3], in test [4] and in test [5] was > 30 µM (inactive) in each case.
For the compound `COc1cc(Nc2ncc(F)c(Nc3ccc4c(n3)N(COP(=O)(O)O)C(=O)C(C)(C)O4)n2)cc(OC)c1OC` [FOSTAMATINIB], the Kd in test [1], in test [2], in test [3], in test [4] and in test [5] was > 30 µM (inactive) throughout.
For the compound `C#Cc1cccc(Nc2ncnc3cc4c(cc23)OCCOCCOCCO4)c1` [ICOTINIB], the Kd is > 30 µM (inactive) in test [1]; > 30 µM (inactive) in test [2]; > 30 µM (inactive) in test [3]; > 30 µM (inactive) in test [4]; 0.227 µM (active) in test [5].
